Like-named read-outs stand apart in the source and are kept apart here. Values belong to the molecule of their own block, whether it stands above or below them.
How the values were obtained:
[1] = test system: Pectobacterium carotovorum subsp. carotovorum MI; assay: Agar-well diffusion, bactericidal activity; format: cell-based; settings: Pectobacterium carotovorum, 2 mM/L
In short: (§1)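 Bacteria spread on agar (BP medium; GYCa for X. campestris; pH 7.2–7.4) with 6-mm wells, each receiving 150 μL compound solution. Cultures grown at 28 °C; growth-inhibition zone width measured after 36–40 h.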

Micrococcus luteus B-109 = assay: Agar-well diffusion, bactericidal activity; format: cell-based; settings: Micrococcus luteus
In short: as §1

[2] = test system: Pectobacterium atrosepticum 1043; assay: Agar-well diffusion, bactericidal activity; format: cell-based; settings: Pectobacterium atrosepticum, 1043, 2 mM/L
In short: as §1

[3] = test system: Pseudomonas fluorescens EL-2.1; assay: Agar-well diffusion, bactericidal activity; format: cell-based; settings: Pseudomonas fluorescens, EL2.1, 2 mM/L
In short: as §1

[4] = test system: five representative phytopathogens; assay: Agar-well diffusion, bactericidal activity over the panel of phytopathogens; format: cell-based; settings: 36 h, 2 mM solutions; dependent on the test system used; read-out: inhibition zone width (mm), range over the test systems
In short: as §1

[5] = test system: Xanthomonas campestris B-610; assay: Agar-well diffusion, bactericidal activity; format: cell-based; settings: Xanthomonas campestris
In short: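 Agar-well diffusion on GYCa agar (pH 7.2–7.4) seeded with bacterial suspension; 150 μL compound solution placed in 6-mm wells. Inhibition zone width measured after 36–40 h incubation.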

[6] = test system: Fusarium oxysporum IBPPM 543; assay: Mycelial radial growth inhibition; format: cell-based; settings: for inhibition of growth at 1 µM: 1 nmol/mL; for inhibition of growth at 1 µM / inhibition of growth at 5 µM / inhibition of growth at 20 µM / inhibition of growth at 40 µM / inhibition of growth at 3 µM / inhibition of growth at 30 µM: read-out: Inhibition value, I (%); for inhibition of growth at 5 µM: 5 nmol/mL; for inhibition of growth at 20 µM: 20 nmol/mL; for inhibition of growth at 40 µM: 40 nmol/mL; for EC50: day 5, read-out: EC50, µg/mL at Day 5, F. oxysporum; for inhibition of growth at 3 µM: 3 nmol/mL; for inhibition of growth at 30 µM: 30 nmol/mL
In short: (§2)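 Compounds mixed into molten GPY agar at various concentrations; centre inoculated with a 5-mm mycelial plug from 10-day cultures and incubated at 27 °C. Colony diameter compared with untreated control until control plate was covered (usually 12 days); ≥4 replicates in two experiments.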

[7] = test system: Phytophthora cactorum VKM F-985; assay: Mycelial radial growth inhibition; format: cell-based; settings: for inhibition of growth at 3 µM / inhibition of growth at 7 µM / inhibition of growth / inhibition of growth at 40 µM / EC50 / inhibition of growth at 1 µM: Phytophthora cactorum; for inhibition of growth at 3 µM: 3 nmol/mL; for inhibition of growth at 3 µM / inhibition of growth at 7 µM / inhibition of growth / inhibition of growth at 40 µM / inhibition of growth at 1 µM: read-out: Inhibition value, I (%); for inhibition of growth at 7 µM: 7 nmol/mL; for inhibition of growth: 27 nmol/mL; for inhibition of growth at 40 µM: 40 nmol/mL; for EC50: read-out: EC50, µg/mL at Day 5, P. cactorum; for inhibition of growth at 1 µM: 1 nmol/mL
In short: as §2

[8] = average of 3 experiments, read-out: width of the inhibition zone (mm), P. carotovorum subsp. carotovorum
[9] = Table S3, read-out: Inhibition zone width (mm), not less
[10] = B109, 2 mM/L, average of 3 experiments, read-out: width of the inhibition zone (mm), M. luteus
[11] = average of 3 experiments, read-out: width of the inhibition zone (mm), P. atrosepticum
[12] = average of 3 experiments, read-out: width of the inhibition zone (mm), Ps. fluorescens
[13] = B610, 2 mM/L, average of 3 experiments, read-out: width of the inhibition zone (mm), X. campestris
[14] = B610, Table S3, 2 mM/L, read-out: Inhibition zone width (mm), not less
[15] = Fusarium oxysporum, IBPPM543, 72 h, age of the fungus 3 days
[16] = Fusarium oxysporum, IBPPM543, 120 h
[17] = Fusarium oxysporum, IBPPM543, 120 h, age of the fungus 5 days
[18] = Fusarium oxysporum, IBPPM543, 168 h, age of the fungus 7 days
[19] = Fusarium oxysporum, IBPPM543, 216 h, age of the fungus 9 days
[20] = 120 h, age of the fungus 5 days
[21] = 168 h, age of the fungus 7 days
[22] = 216 h, age of the fungus 9 days

melting point: 172 to 173 °C
EC50 [6, 16]: 14.9 µg/mL
EC50 ([7]; 120 h, day 5): 15 µg/mL
EC50, µg/mL at Day 5, P. cactorum ([7]; day 5): 15.40 µg/mL
SMILES: O=C(C[n+]1ccccc1)NN=C1C(=O)N(Cc2cccc(C(F)(F)F)c2)c2ccc(F)cc21.[Cl-] [Compound 5c, 1-(2-(2-(5-Fluoro-2-oxo-1-(3-(trifluoromethyl)benzyl)indolin-3-ylidene)hydrazinyl)-2-oxoethyl)pyridin-1-ium chloride]
zone of inhibition at 2000 µM [1, 8]: 5 mm
zone of inhibition at 2000 µM [1, 9]: ≥ 5 mm
zone of inhibition at 2000 µM (Micrococcus luteus B-109; [10]): 4 mm
zone of inhibition at 2000 µM [2, 11]: 5 mm
zone of inhibition at 2000 µM [2, 9]: ≥ 5 mm
zone of inhibition at 2000 µM [3, 12]: 5 mm
zone of inhibition at 2000 µM [3, 9]: ≥ 5 mm
zone of inhibition at 2000 µM [4]: 4 to 7 mm
zone of inhibition at 2000 µM [5, 13]: 7 mm
zone of inhibition at 2000 µM [5, 14]: ≥ 7 mm
inhibition of growth at 1 µM [6, 15]: 22%
inhibition of growth at 5 µM [6, 15]: 40%
inhibition of growth at 20 µM [6, 15]: 49%
inhibition of growth at 40 µM [6, 15]: 57%
inhibition of growth at 1 µM [6, 17]: 19%
inhibition of growth at 5 µM [6, 17]: 36%
inhibition of growth at 20 µM [6, 17]: 45%
inhibition of growth at 40 µM [6, 17]: 55%
inhibition of growth at 1 µM [6, 18]: 13%
inhibition of growth at 5 µM [6, 18]: 28%
inhibition of growth at 20 µM [6, 18]: 35%
inhibition of growth at 40 µM [6, 18]: 52%
inhibition of growth at 1 µM [6, 19]: 3%
inhibition of growth at 20 µM [6, 19]: 21%
inhibition of growth at 40 µM [6, 19]: 51%
antagonistic effect superior to that of N-cetylpyridinium chloride ([7]; 5 days of growth): 2.3 times
inhibition of growth at 3 µM ([7]; 72 h, age of the fungus 3 days): 7%
inhibition of growth at 7 µM ([7]; 72 h, age of the fungus 3 days): 13%
inhibition of growth ([7]; 72 h, age of the fungus 3 days): 36%
inhibition of growth at 40 µM ([7]; 72 h, age of the fungus 3 days): 55%
inhibition of growth at 3 µM [7, 20]: 8%
inhibition of growth at 7 µM [7, 20]: 21%
inhibition of growth [7, 20]: 38%
inhibition of growth at 40 µM [7, 20]: 64%
inhibition of growth at 3 µM [7, 21]: 4%
inhibition of growth at 7 µM [7, 21]: 14%
inhibition of growth [7, 21]: 29%
inhibition of growth at 40 µM [7, 21]: 42%
inhibition of growth at 3 µM [7, 22]: 3%
inhibition of growth at 7 µM [7, 22]: 12%
inhibition of growth [7, 22]: 18%
inhibition of growth at 40 µM [7, 22]: 36%

melting point: 202 to 203 °C
EC50 [6, 16]: 0.6 µg/mL
IC50 ([6]; Fusarium oxysporum, IBPPM543, read-out: IC50, antifungal activity against F. oxysporum): 0.6 µg/mL
EC50 ([7]; 120 h, day 5): 27.4 µg/mL
SMILES: Cc1ccc2c(c1)C(=NNC(=O)C[n+]1ccccc1)C(=O)N2Cc1cccc(C(F)(F)F)c1.[Cl-] [Compound 5e, 1-(2-(2-(5-Methyl-2-oxo-1-(3-(trifluoromethyl)benzyl)indolin-3-ylidene)hydrazinyl)-2-oxoethyl)pyridin-1-ium chloride]
zone of inhibition at 2000 µM [1, 8]: 5 mm
zone of inhibition at 2000 µM [1, 9]: ≥ 5 mm
zone of inhibition at 2000 µM (Micrococcus luteus B-109; [10]): 6 mm
zone of inhibition at 2000 µM (Micrococcus luteus B-109; B109, Table S3, 2 mM/L, read-out: Inhibition zone width (mm), not less): ≥ 6 mm
zone of inhibition at 2000 µM [2, 11]: 4 mm
zone of inhibition at 2000 µM [3, 12]: 7 mm
zone of inhibition at 2000 µM [3, 9]: ≥ 7 mm
zone of inhibition at 2000 µM [4]: 4 to 7 mm
zone of inhibition at 2000 µM [5, 13]: 5 mm
zone of inhibition at 2000 µM [5, 14]: ≥ 5 mm
inhibition of growth at 1 µM [6, 15]: 33%
inhibition of growth at 3 µM [6, 15]: 66%
inhibition of growth at 20 µM [6, 15]: 69%
inhibition of growth at 30 µM [6, 15]: 75%
inhibition of growth at 1 µM [6, 17]: 48%
inhibition of growth at 3 µM [6, 17]: 67%
inhibition of growth at 20 µM [6, 17]: 72%
inhibition of growth at 30 µM [6, 17]: 76%
inhibition of growth at 1 µM [6, 18]: 33%
inhibition of growth at 3 µM [6, 18]: 65%
inhibition of growth at 20 µM [6, 18]: 69%
inhibition of growth at 30 µM [6, 18]: 72%
inhibition of growth at 1 µM [6, 19]: 18%
inhibition of growth at 3 µM [6, 19]: 64%
inhibition of growth at 20 µM [6, 19]: 67%
inhibition of growth at 30 µM [6, 19]: 71%
fungicidal action stronger than N-cetylpyridinium chloride ([6]; same culture age (5 days)): 235 times
inhibition of Fusarium growth greater than fludioxonil ([6]; same culture age (5 days)): 139 times
antagonistic effect superior to that of N-cetylpyridinium chloride ([7]; 5 days of growth): 1.3 times
antagonistic effect superior to that of fludioxonil ([7]; 5 days of growth): 1.1 times
inhibition of growth at 1 µM ([7]; 72 h, age of the fungus 3 days): 20%
inhibition of growth at 3 µM ([7]; 72 h, age of the fungus 3 days): 23%
inhibition of growth at 7 µM ([7]; 72 h, age of the fungus 3 days): 25%
inhibition of growth ([7]; 72 h, age of the fungus 3 days): 28%
inhibition of growth at 40 µM ([7]; 72 h, age of the fungus 3 days): 35%
inhibition of growth at 1 µM [7, 20]: 16%
inhibition of growth at 3 µM [7, 20]: 19%
inhibition of growth at 7 µM [7, 20]: 30%
inhibition of growth [7, 20]: 35%
inhibition of growth at 40 µM [7, 20]: 38%
inhibition of growth at 1 µM [7, 21]: 15%
inhibition of growth at 3 µM [7, 21]: 17%
inhibition of growth at 7 µM [7, 21]: 23%
inhibition of growth [7, 21]: 26%
inhibition of growth at 40 µM [7, 21]: 29%
inhibition of growth at 1 µM [7, 22]: 14%
inhibition of growth at 3 µM [7, 22]: 17%
inhibition of growth at 7 µM [7, 22]: 19%
inhibition of growth [7, 22]: 21%
inhibition of growth at 40 µM [7, 22]: 26%
